Results: article PMC9538944, “In vitro biotransformation assays using fish liver cells: Comparing rainbow trout and carp hepatocytes” (Frontiers in Toxicology, 2022)
Marks after values point to notes of the source that are not given here.

How the values were obtained:
[1] = tested on: rainbow trout hepatocytes; assay: In vitro hepatocyte clearance assay (substrate depletion), trout; format: in vitro ADME, Oncorhynchus mykiss; details: 15 °C, 4 h, 2 µM MXC / 0.5 µM BaP, mean over in vitro runs
Procedure: (§1) Isolation of hepatocytes from liver of rainbow trout was performed by a two-step collagenase perfusion procedure which is well established for rainbow trout ([Nabb et al., 2006]; [Fay et al., 2015]). […] In previous studies with common carp, an in vitro digestion method was used to isolate hepatocytes ([Cowan-Ellsberry et al., 2008]; [Dyer et al., 2008]). Here, we adopted the method of [Segner et al. (1993)] who used a two-step collagenase perfusion of carp liver via the Arteria coeliaca for cell isolation. With the perfusion method, the percentage of pancreatic cells in the final cell suspension is typically <5% ([Vogt and Segner, 1997]). Cryopreservation and thawing procedures applied for hepatocytes of both species were based on the standard protocols for rainbow trout ([Fay et al., 2014a]; [Fay et al., 2014b]). The viability of the cells was determined by means of the trypan blue exclusion assay and counting of stained and non-stained cells in a hemocytometer. The carp and trout primary hepatocyte suspensions used in the present study were aliquots of the in vitro preparations used in a previous study investigating the in vitro metabolite patterns of MXC ([Bischof et al., 2016]). A detailed description of the methods and materials used for the preparation of hepatocyte suspensions including the procedures for cell isolation, cryopreservation, and thawing, as well as cell counting, diluting to the target cell concentration, and heat-inactivating can therefore be taken from [Bischof et al. (2016)] and from the cited publications.
(§2) The in vitro hepatocyte clearance experiments were performed in a substrate depletion approach according to the methods previously published by [Fay et al. (2014b)]. These methods are in accordance with the procedures provided in the OECD TG 319A on the performance of in vitro hepatocyte clearance assays. In the present study, several in vitro runs with MXC and BaP using suspensions of either freshly isolated or cryopreserved hepatocytes from common carp and rainbow trout were carried out. For the different in vitro runs non-pooled hepatocytes were used, i.e. hepatocytes from different individual fish. For each run, triplicates of live cells (3 × 1 ml at nominal 2 × 10^6 cells/mL) and heat-inactivated cells as controls were dosed with the test chemical dissolved in acetonitrile (ACN) at the targeted concentration (2 µM for MXC and 0.5 µM for BaP) and incubated for 4 h at 15 °C (trout) or 20 °C (carp). MXC and BaP reactions were run side by side in the same in vitro run using the same hepatocyte suspensions. […]
(§3) Measured values of parent chemical concentration were log10-transformed and plotted against time. […]

common carp hepatocytes = assay: In vitro hepatocyte clearance assay (substrate depletion), carp; format: in vitro ADME, Cyprinus carpio; details: 20 °C, 2 µM MXC / 0.5 µM BaP, mean over in vitro runs
Procedure: as §1, §2, §3

[2] = cryopreserved trout hepatocytes
[3] = freshly isolated trout hepatocytes
[4] = cryopreserved carp hepatocytes, 4 h time point excluded
[5] = freshly isolated carp hepatocytes, 4 h, nominal 2 × 10^6 cells/mL

SMILES	Mean in vitro intrinsic clearance (CLin vitro, int) [1, 2] [mL/h/10^6 cells]	Mean in vitro intrinsic clearance (CLin vitro, int) [1, 3] [mL/h/10^6 cells]	Mean in vitro intrinsic clearance (CLin vitro, int) (common carp hepatocytes; [4]) [mL/h/10^6 cells]	Mean in vitro intrinsic clearance (CLin vitro, int) (common carp hepatocytes; [5])
c1ccc2c(c1)cc1ccc3cccc4ccc2c1c34 [BaP, benzo[a]pyrene]	0.243	0.251	0.287	0.198^* mL/h/10^6 cells
COc1ccc(C(c2ccc(OC)cc2)C(Cl)(Cl)Cl)cc1 [MXC, methoxychlor]	0.283	0.250	0.204	0.287^* mL/h/10^6 cells
